# Results reported in PMC6105164 (Cancer Chemotherapy and Pharmacology, 2018).
# Entries after “also recorded” stand apart in the source; their conditions may differ.
# Assays:
# [1] = test system: patients with KRAS mutations; conditions: previous phase II trial; cited from earlier work
# [2] = Urine concentration of Salirasib (LC-MS/MS), day 1; assay type: in vivo, human; conditions: within 24 h, any dosing group (200, 600, 1000 mg sampled)
# Description: Blood samples were collected 10 times on day 1 (before drug administration, and 0.5-, 1-, 1.5-, 2-, 4-, 6-, 8-, 12-, and 24-h post-administration), once on days 4, 7, and 14, and 9 times on day 21 (before morning dose, and 0.5, 1, 1.5, 2, 4, 6, 8, and 12 h after morning dose but before evening dose). Urine samples were collected from patients who received 200, 600, or 1000 mg on day 1 (before drug administration, and 0–6-, 6–12-, 12–24-h post-administration).
# [3] = test system: Japanese patients with relapsed/refractory solid tumors; experiment: Safety: dose-limiting toxicity and adverse events (NCI-CTCAE v.4.0); assay type: in vivo, human; conditions: for Death: first and repeated regimens
# Description: Treatment was immediately terminated at the patient’s request when DLT occurred; the study physician decided that continuation was inappropriate because of AEs; or if the tumor was classified as progressive disease (PD) according to the Response Evaluation Criteria in Solid Tumor (RECIST) Guideline. In cases of DLT, patients were allowed to continue the regimen with dose adjustments upon providing written agreement.
# Patients were registered when up to three patients received ≥ 60% of planned treatment in the regimen before DLT was evaluated for dose escalation. […] According to the DLT and pharmacokinetics data obtained by a given time, the recommended dose was determined and additional three patients were added to the dosing group a posteriori.
# To evaluate the safety, vital signs (systolic and diastolic blood pressure, pulse rate, body temperature, and body weight), 12-lead electrocardiogram, clinical laboratory tests, chest X-ray, and performance status [Eastern Cooperative Oncology Group (ECOG)] were evaluated on predefined dates (Supplemental Table S1). Examined items in the clinical laboratory tests are listed in Supplemental Table S2.
# AEs were graded in accordance with NCI-CTCAE v.4.0 and recorded. The study physicians determined whether the AEs were drug-related and recorded.
# [4] = test system: US patients; conditions: cited from earlier work
# [5] = test system: relapsed/refractory solid tumors; experiment: Exploratory evaluation of efficacy (RECIST); assay type: in vivo, human; conditions: for Number of cycles completed, Median / Number of cycles completed, Range: completed = ≥ 60% of planned treatment
# Description: Treatment was immediately terminated at the patient’s request when DLT occurred; the study physician decided that continuation was inappropriate because of AEs; or if the tumor was classified as progressive disease (PD) according to the Response Evaluation Criteria in Solid Tumor (RECIST) Guideline. In cases of DLT, patients were allowed to continue the regimen with dose adjustments upon providing written agreement. At the end of the regimen, patients were allowed to repeat the same regimen if all of the following criteria were met: no DLT occurred; the tumor was not determined as PD; the study physicians agreed; and the patient provided written informed consent. […] Diagnostic imaging using computed tomography, magnetic resonance imaging (MRI), fluorodeoxyglucose-positron emission tomography (PET), and/or bone scintigraphy was performed depending on the tumors and clinical symptoms on day 22 of first and repeated regimens or at discontinuation. Specific tumor markers (e.g., carcinoembryonic antigen for colorectal cancer and prostate-specific antigen for prostate cancer) were measured on day 22 of first and repeated regimens or at discontinuation. Based on the information obtained, the efficacy was scored in accordance with the RECIST guideline.
# [6] = 800 mg twice-daily, for one patient days until withdrawal were counted
# [7] = 800 mg twice-daily, two patients not evaluated
# [8] = patients with KRAS mutations (4 patients)
smiles,measurement,setting,value
"CC(C)=CCC/C(C)=C/CC/C(C)=C/CSc1ccccc1C(=O)O [Salirasib, S-trans, trans-farnesylthiosalicylic acid]",partial response (PR),[1],no patients achieved PR
same,excretion in urine,[2],not excreted in urine
same,Death,[3]; 100 mg twice-daily,0 (0.0) N (%)
same,Death,[3]; 200 mg twice-daily,0 (0.0) N (%)
same,Death,[3]; 400 mg twice-daily,0 (0.0) N (%)
same,Death,[3]; 600 mg twice-daily,0 (0.0) N (%)
same,Death,[3]; 800 mg twice-daily,0 (0.0) N (%)
same,Death,[3]; 1000 mg twice-daily,0 (0.0) N (%)
same,Death,"[3]; Total, all dose groups",0 (0.0) N (%)
same,"deaths during the treatment period, in words",[3]; all dose groups,No patients died
same,AEs observed at grade ≥ 3: ALP increased,"[3]; human, in vivo",3 (14.3) N (%)
same,AEs observed at grade ≥ 3: AST increased,"[3]; human, in vivo",1 (4.8) N (%)
same,AEs observed at grade ≥ 3: Amylase increased,"[3]; human, in vivo",1 (4.8) N (%)
same,AEs observed at grade ≥ 3: Anemia,"[3]; human, in vivo",2 (9.5) N (%)
same,AEs observed at grade ≥ 3: Ascites,"[3]; human, in vivo",1 (4.8) N (%)
same,AEs observed at grade ≥ 3: Bilirubin increased,"[3]; human, in vivo",1 (4.8) N (%)
same,AEs observed at grade ≥ 3: Cancer pain,"[3]; human, in vivo",1 (4.8) N (%)
same,AEs observed at grade ≥ 3: Cholestatic jaundice,"[3]; human, in vivo",1 (4.8) N (%)
same,AEs observed at grade ≥ 3: Decreased appetite,"[3]; human, in vivo",1 (4.8) N (%)
same,AEs observed at grade ≥ 3: Diarrhea,"[3]; human, in vivo",2 (9.5) N (%)
same,AEs observed at grade ≥ 3: Hemoglobin decreased,"[3]; human, in vivo",2 (9.5) N (%)
same,AEs observed at grade ≥ 3: Hypercalcemia,"[3]; human, in vivo",1 (4.8) N (%)
same,AEs observed at grade ≥ 3: Hyponatremia,"[3]; human, in vivo",2 (9.5) N (%)
same,AEs observed at grade ≥ 3: Hypophosphatemia,"[3]; human, in vivo",1 (4.8) N (%)
same,AEs observed at grade ≥ 3: Lymphopenia,"[3]; human, in vivo",1 (4.8) N (%)
same,AEs observed at grade ≥ 3: Troponin T increased,"[3]; human, in vivo",1 (4.8) N (%)
same,AEs observed at grade ≥ 3: γ-GTP increased,"[3]; human, in vivo",3 (14.3) N (%)
same,AEs observed in ≥ 3 patients: Abdominal pain,"[3]; human, in vivo",6 (28.6) N (%)
same,AEs observed in ≥ 3 patients: Decreased appetite,"[3]; human, in vivo",9 (42.9) N (%)
same,AEs observed in ≥ 3 patients: Diarrhea,"[3]; human, in vivo",18 (85.7) N (%)
same,AEs observed in ≥ 3 patients: Nausea,"[3]; human, in vivo",6 (28.6) N (%)
same,AEs observed in ≥ 3 patients: Vomiting,"[3]; human, in vivo",4 (19.0) N (%)
same,All AEs,"[3]; human, in vivo",21 (100) N (%)
same,All drug-related AEs,"[3]; human, in vivo",19 (90.5) N (%)
same,Discontinuation because of AEs,"[3]; human, in vivo",0 (0.0) N (%)
same,Discontinuation because of drug-related AEs,"[3]; human, in vivo",0 (0.0) N (%)
same,Dose-limiting toxicity (DLT),"[3]; human, in vivo",0 (0.0) N (%)
same,Patients with AEs of grade ≥ 3,"[3]; human, in vivo",9 (42.9) N (%)
same,Patients with drug-related AEs of grade ≥ 3,"[3]; human, in vivo",4 (19.0) N (%)
same,Serious AEs,"[3]; human, in vivo",1 (4.8) N (%)
same,Serious drug-related AEs,"[3]; human, in vivo",0 (0.0) N (%)
same,patients in whom AEs were observed,"[3]; human, in vivo",21 patients
same,dose considered safe and tolerable,"[3]; human, in vivo, 28 days",up to 1000 mg
same,"AEs of grade ≥ 3, in words",[3]; in vivo,not observed
same,"Dose-limiting toxicity (DLT), in words",[3]; in vivo,no DLT was observed
same,maximum tolerable dose,[3]; in vivo,No maximum tolerable dose was discerned
same,"patients with drug-related AEs, in words",[3]; in vivo,in all patients except two
same,"serious AE, in words",[3]; in vivo,One serious AE (ascites)
same,drug-related AEs,[4]; US patients on 800-mg regimen,all patients on 800-mg regimen experienced drug-related AEs
same,Dose-limiting toxicity (DLT),"[4]; phase I trial in the US patients, up to 800 mg",no DLT was observed up to 800 mg
same,Disease control rate (DCR): CR + PR + SD,[5]; 100 mg twice-daily,1 (33.3) N (%)
same,Objective response rate (ORR): CR + PR,[5]; 100 mg twice-daily,0 (0.0) N (%)
same,"Progression-free survival, Median",[5]; 100 mg twice-daily,22 days
same,"Progression-free survival, Range",[5]; 100 mg twice-daily,16 to 53 days
same,Response rate: Complete response (CR),[5]; 100 mg twice-daily,0 (0.0) N (%)
same,Response rate: Partial response (PR),[5]; 100 mg twice-daily,0 (0.0) N (%)
same,Response rate: Progressive disease (PD),[5]; 100 mg twice-daily,2 (66.7) N (%)
same,"Number of cycles completed, Median",[5]; 100 mg twice-daily,1
same,"Number of cycles completed, Range",[5]; 100 mg twice-daily,1–2
same,Disease control rate (DCR): CR + PR + SD,[5]; 200 mg twice-daily,3 (100.0) N (%)
same,Objective response rate (ORR): CR + PR,[5]; 200 mg twice-daily,0 (0.0) N (%)
same,"Progression-free survival, Median",[5]; 200 mg twice-daily,213 days
same,"Progression-free survival, Range",[5]; 200 mg twice-daily,57 to 373 days
same,Response rate: Complete response (CR),[5]; 200 mg twice-daily,0 (0.0) N (%)
same,Response rate: Partial response (PR),[5]; 200 mg twice-daily,0 (0.0) N (%)
same,Response rate: Progressive disease (PD),[5]; 200 mg twice-daily,0 (0.0) N (%)
same,"Number of cycles completed, Median",[5]; 200 mg twice-daily,7
same,"Number of cycles completed, Range",[5]; 200 mg twice-daily,2–13
same,Disease control rate (DCR): CR + PR + SD,[5]; 400 mg twice-daily,2 (66.7) N (%)
same,Objective response rate (ORR): CR + PR,[5]; 400 mg twice-daily,0 (0.0) N (%)
same,"Progression-free survival, Median",[5]; 400 mg twice-daily,56 days
same,"Progression-free survival, Range",[5]; 400 mg twice-daily,22 to 91 days
same,Response rate: Complete response (CR),[5]; 400 mg twice-daily,0 (0.0) N (%)
same,Response rate: Partial response (PR),[5]; 400 mg twice-daily,0 (0.0) N (%)
same,Response rate: Progressive disease (PD),[5]; 400 mg twice-daily,1 (33.3) N (%)
same,"Number of cycles completed, Median",[5]; 400 mg twice-daily,2
same,"Number of cycles completed, Range",[5]; 400 mg twice-daily,1–3
same,Disease control rate (DCR): CR + PR + SD,[5]; 600 mg twice-daily,2 (66.7) N (%)
same,Objective response rate (ORR): CR + PR,[5]; 600 mg twice-daily,0 (0.0) N (%)
same,"Progression-free survival, Median",[5]; 600 mg twice-daily,135 days
same,"Progression-free survival, Range",[5]; 600 mg twice-daily,79 to 319 days
same,Response rate: Complete response (CR),[5]; 600 mg twice-daily,0 (0.0) N (%)
same,Response rate: Partial response (PR),[5]; 600 mg twice-daily,0 (0.0) N (%)
same,Response rate: Progressive disease (PD),[5]; 600 mg twice-daily,1 (33.3) N (%)
same,"Number of cycles completed, Median",[5]; 600 mg twice-daily,5
same,"Number of cycles completed, Range",[5]; 600 mg twice-daily,3–11
same,"Number of cycles completed, Median",[5]; 800 mg twice-daily,1
same,"Number of cycles completed, Range",[5]; 800 mg twice-daily,1–11
same,"Progression-free survival, Median",[5]; [6],29 days
same,"Progression-free survival, Range",[5]; [6],22 to 307 days
same,Disease control rate (DCR): CR + PR + SD,[5]; [7],1 (16.7) N (%)
same,Objective response rate (ORR): CR + PR,[5]; [7],0 (0.0) N (%)
same,Response rate: Complete response (CR),[5]; [7],0 (0.0) N (%)
same,Response rate: Partial response (PR),[5]; [7],0 (0.0) N (%)
same,Response rate: Progressive disease (PD),[5]; [7],3 (50.0) N (%)
same,Disease control rate (DCR): CR + PR + SD,[5]; 1000 mg twice-daily,1 (33.3) N (%)
same,Objective response rate (ORR): CR + PR,[5]; 1000 mg twice-daily,0 (0.0) N (%)
same,"Progression-free survival, Median",[5]; 1000 mg twice-daily,22 days
same,"Progression-free survival, Range",[5]; 1000 mg twice-daily,22 to 91 days
same,Response rate: Complete response (CR),[5]; 1000 mg twice-daily,0 (0.0) N (%)
same,Response rate: Partial response (PR),[5]; 1000 mg twice-daily,0 (0.0) N (%)
same,Response rate: Progressive disease (PD),[5]; 1000 mg twice-daily,2 (66.7) N (%)
same,"Number of cycles completed, Median",[5]; 1000 mg twice-daily,1
same,"Number of cycles completed, Range",[5]; 1000 mg twice-daily,1–3
same,Disease control rate (DCR): CR + PR + SD,"[5]; Total, all dose groups",10 (47.6) N (%)
same,Objective response rate (ORR): CR + PR,"[5]; Total, all dose groups",0 (0.0) N (%)
same,"Progression-free survival, Median","[5]; Total, all dose groups",53 days
same,"Progression-free survival, Range","[5]; Total, all dose groups",16 to 373 days
same,Response rate: Complete response (CR),"[5]; Total, all dose groups",0 (0.0) N (%)
same,Response rate: Partial response (PR),"[5]; Total, all dose groups",0 (0.0) N (%)
same,Response rate: Progressive disease (PD),"[5]; Total, all dose groups",9 (42.9) N (%)
same,"Number of cycles completed, Median","[5]; Total, all dose groups",2
same,"Number of cycles completed, Range","[5]; Total, all dose groups",1–13
same,"complete response (CR) or partial response (PR), in words","[5]; all patients, during the trial",Neither complete response (CR) nor partial response (PR) was found; also recorded: no patients showed CR or PR
same,patients who repeated the regimen,[5]; of 21 patients,11 patients
same,"Progression-free survival, Range",[5]; [8],79 to 373 days
same,median progression-free survival,[5]; [8],227 days
same,"number of cycles, median",[5]; [8],8 cycles
same,"number of cycles, range",[5]; [8],3–13 cycles
